Results on 31 compounds are retold here after the Deep4Chem optical property database.

The nature of this series: photoluminescence quantum yield (fraction); solvent given as SMILES.

`CCOC(=O)c1ccccc1-c1c2ccc(=[N+](CC)CC)cc-2oc2cc(N(CC)CC)ccc12` gave a photoluminescence quantum yield (in CC#N) of 0.39, a photoluminescence quantum yield (in CCO) of 0.69, a photoluminescence quantum yield (in CN(C)C=O) of 0.39 and a photoluminescence quantum yield (in O) of 0.34.

As to `COC(=O)c1ccc2ccc3cccc4ccc1c2c34`, the photoluminescence quantum yield is 0.68 (in C1CCOC1); 0.79 (in CC#N); 0.63 (in CCCCCC); 0.81 (in CCO); 0.74 (in CN(C)C=O); 0.69 (in CO). Besides, the photoluminescence quantum yield by setting is: (in Cc1ccccc1) 0.76; (in ClCCl) 0.56.

For `CC(=O)[B-]1(C(C)=O)OC(c2ccc3ccccc3c2)=CC(c2ccc3ccccc3c2)=[O+]1`, the photoluminescence quantum yield stood at 0.56 (in CC#N) and 0.61 (in ClC(Cl)(Cl)Cl).

With `COC(=O)c1ccc(/C=C2\C=C(c3ccc(C#N)cc3)N(CC(C)C)C2=O)cc1`, the photoluminescence quantum yield (in C1COCCO1) amounted to 0.192.

Consider `Cc1ccc(C2=C3C=CC(C#Cc4ccccc4)=[N+]3[B-](F)(F)n3c(C#Cc4ccccc4)ccc32)cc1`, for which the photoluminescence quantum yield by setting is: (in C1CCCCC1) 1; (in C1CCOC1) 0.99; (in C1COCCO1) 1; (in CCOC(C)=O) 1; (in CO) 1; (in Cc1ccccc1) 1. The photoluminescence quantum yield reads like this: (in ClC(Cl)Cl) 1; (in ClCCl) 1.

For the setting “in ClC(Cl)Cl”, `N#Cc1ccc(C#Cc2ccccc2C#N)cc1` returned a photoluminescence quantum yield of 0.452.

Consider `CC1(C)c2ccccc2-c2sc3ccccc3c21`, for which the photoluminescence quantum yield (in ClCCl) is 0.11.

`CSc1sc(C(C)=O)c2nn[nH]c(=O)c12` returned a photoluminescence quantum yield (in C1CCOC1) of 0.015; a photoluminescence quantum yield (in CC#N) of 0.017; a photoluminescence quantum yield (in CCO) of 0.0091; a photoluminescence quantum yield (in CN(C)C=O) of 0.0047; a photoluminescence quantum yield (in CO) of 0.0077; a photoluminescence quantum yield (in CS(C)=O) of 0.0048.

`COc1ccc2oc(=N)c(C#N)cc2c1` came in with a photoluminescence quantum yield (in ClCCl) of 0.062.

Compound `O=C1c2ccc3c4c(-c5ccccc5)cc5c6c(ccc(c7c(-c8ccccc8)cc(c2c37)C(=O)N1C1CCCCC1)c64)C(=O)N(C1CCCCC1)C5=O` came in with a photoluminescence quantum yield (in ClC(Cl)Cl) of 0.186.

Compound `CC(C)(C)c1ccc(-c2cc(-c3ccc(-c4cc(-c5ccc(C(C)(C)C)cc5)c(C(=O)N5CCOCC5)s4)s3)sc2C(=O)N2CCOCC2)cc1` displayed a photoluminescence quantum yield (in ClCCl) of 0.26.

Compound `CCCCCCC1(CCCCCC)c2cc(-c3ccc(-c4ccc(-c5ccc(-c6ccc7c(c6)C(CCCCCC)(CCCCCC)c6cc(-n8c9ccc(-n%10c%11ccccc%11c%11ccccc%11%10)cc9c9cc(-n%10c%11ccccc%11c%11ccccc%11%10)ccc98)ccc6-7)s5)c5nsnc45)s3)ccc2-c2ccc(-n3c4ccc(-n5c6ccccc6c6ccccc65)cc4c4cc(-n5c6ccccc6c6ccccc65)ccc43)cc21` had a photoluminescence quantum yield (in ClCCl) of 0.15.

As to `COc1cc(/C=C2/SC(=O)NC2=O)ccc1O`, the photoluminescence quantum yield is, setting by setting: (in C1CCCCC1) 0.018; (in C1COCCO1) 0.017; (in CC#N) 0.01; (in CN(C)C=O) 0.023; (in CO) 0.012; (in O) 0.011. Also, the photoluminescence quantum yield is 0.35 (in OCC(O)CO) and 0.104 (in OCCO).

Take `CC(C)(C)c1ccc2c(c1)c1cc(C(C)(C)C)ccc1n2-c1ccc(S(=O)(=O)c2ccc(-n3c4ccc(C(C)(C)C)cc4c4cc(C(C)(C)C)ccc43)cc2)cc1`: the photoluminescence quantum yield (in Cc1ccccc1) came out at 0.69.

Take `O=c1oc2ccccc2c2c1c(=O)oc1cc(O)cc(O)c12`: for the setting “in ClCCl”, the photoluminescence quantum yield came to 0.1.

Regarding `N#Cc1ccc(N(c2ccc(C#N)cc2)c2ccc3c4cccc5c(N(c6ccc(C#N)cc6)c6ccc(C#N)cc6)ccc(c6cccc2c63)c54)cc1`, the photoluminescence quantum yield (in ClCCl) was found to be 0.91.

Compound `C(#Cc1ccccc1)C(C#Cc1ccccc1)=Cc1ccc2cc(C=C(C#Cc3ccccc3)C#Cc3ccccc3)ccc2c1` displayed a photoluminescence quantum yield (in ClC(Cl)Cl) of 0.49.

Compound `O=C1OC(c2ccccc2)=C/C1=C\c1ccc([N+](=O)[O-])cc1` yielded a photoluminescence quantum yield (in C1COCCO1) of 0.083.

Under “in CO”, `CC1(C)C(/C=C/C2=C(Oc3ccc(CCN=C=S)cc3Br)C(=C/C=C3/N(CCCS(=O)(=O)[O-])c4ccccc4C3(C)C)/CCC2)=[N+](CCCS(=O)(=O)[O-])c2ccccc21` had a photoluminescence quantum yield of 0.14.

With `CCN1c2ccc(/C=N/Nc3ccccn3)cc2Sc2cc(-c3ccc(OC)cc3)ccc21`, the photoluminescence quantum yield was found to be 0.32 (in C1CCOC1), 0.55 (in CS(C)=O), 0.16 (in Cc1ccccc1) and 0.38 (in ClCCl).

The compound `O=c1[nH]c(=O)c2nc3ccccc3nc2[nH]1` gave a photoluminescence quantum yield (in CC#N) of 0.009.

As for `COC(=O)c1ccc(/C=C/C(F)(F)F)c(N)c1`, where the note is “in C1CCOC1”, the photoluminescence quantum yield amounted to 0.74.

Compound `O=C1c2ccccc2C2=C(c3ccccn3)NN=C(c3ccccn3)C2c2ccccc21` (stereo unspecified) returned a photoluminescence quantum yield (in CC#N) of 0.41.

As for `COc1ccc(/C=C/c2nc(/C=C/c3ccc(N(C)C)cc3)cc(/C=C/c3ccc(N(c4ccccc4)c4ccccc4)cc3)n2)cc1`, where the note is “in ClCCl”, the photoluminescence quantum yield was 0.68.

Take `CC1(C)C(/C=C/C2=C(Oc3ccc(CCN=C=S)cc3)C(=C/C=C3/N(CCCS(=O)(=O)[O-])c4ccccc4C3(C)C)/CCC2)=[N+](CCCS(=O)(=O)[O-])c2ccccc21`: the photoluminescence quantum yield (in CO) was 0.07.

Turning to `COc1cc(/C=C2/SC(=O)NC2=O)cc(OC)c1O`, the photoluminescence quantum yield runs as follows: (in C1CCCCC1) 0.032; (in C1COCCO1) 0.03; (in CC#N) 0.02; (in CN(C)C=O) 0.042; (in CO) 0.034; (in O) 0.027. The photoluminescence quantum yield runs as follows: (in OCC(O)CO) 0.38; (in OCCO) 0.108.

Regarding `CN(C)c1ccc(C2=Nc3sc4cc(Cl)ccc4[n+]3[B-](F)(F)O2)cc1`, the photoluminescence quantum yield is, setting by setting: (in C1CCOC1) 0.74; (in CC#N) 0.12; (in CC(C)=O) 0.21; (in Cc1ccccc1) 0.91; (in ClCCl) 0.78.

As to `CCCCCCCCCCCCSc1cc2c3c(ccc4c5c(SCCCCCCCCCCCC)cc6c7c(ccc(c1c34)c75)C(=O)N(C1CCCCC1)C6=O)C(=O)N(C1CCCCC1)C2=O`, the photoluminescence quantum yield (in ClC(Cl)Cl) is 0.155.

On to `COC(=O)c1c(C(=O)OC)c2ccc(-c3ccccc3)nn2c1C`, for which the photoluminescence quantum yield (in CCCCCC) came to 0.685.

As for `O=C1NC(=O)c2ccc3c4ccc5c6c(ccc(c7ccc1c2c73)c64)C(=O)N(c1ccc(Cl)cc1)C5=O`, the photoluminescence quantum yield (in CN(C)C=O) turned out to be 0.98.

In the case of `CC1=[N+]2C(=C(c3ccccc3)c3ccc(C)n3[B-]2(F)F)C=C1`, the photoluminescence quantum yield is, setting by setting: (in C1CCCCC1) 0.29; (in C1CCOC1) 0.25; (in CC#N) 0.17; (in CCOC(C)=O) 0.25; (in CO) 0.19; (in Cc1ccccc1) 0.42. Where the note is “in ClC(Cl)Cl”, this compound displayed a photoluminescence quantum yield of 0.38.
